Measurements: ChEMBL document CHEMBL1743141, “Membrane transporters in drug development” (Nat Rev Drug Discov, 2010)

Experiments:
Type in all cases: ADME
[1] = target: ATP-binding cassette sub-family C member 2 (Homo sapiens, UniProt Q92887); test: Substrates of transporters of clinical importance in the absorption and disposition of drugs, MRP2
[2] = target: T1, Solute carrier organic anion transporter family member 1B3 (Homo sapiens, UniProt Q9NPD5); test: Substrates of transporters of clinical importance in the absorption and disposition of drugs, OATP1B3
T1 sequence (Q9NPD5 whole entry): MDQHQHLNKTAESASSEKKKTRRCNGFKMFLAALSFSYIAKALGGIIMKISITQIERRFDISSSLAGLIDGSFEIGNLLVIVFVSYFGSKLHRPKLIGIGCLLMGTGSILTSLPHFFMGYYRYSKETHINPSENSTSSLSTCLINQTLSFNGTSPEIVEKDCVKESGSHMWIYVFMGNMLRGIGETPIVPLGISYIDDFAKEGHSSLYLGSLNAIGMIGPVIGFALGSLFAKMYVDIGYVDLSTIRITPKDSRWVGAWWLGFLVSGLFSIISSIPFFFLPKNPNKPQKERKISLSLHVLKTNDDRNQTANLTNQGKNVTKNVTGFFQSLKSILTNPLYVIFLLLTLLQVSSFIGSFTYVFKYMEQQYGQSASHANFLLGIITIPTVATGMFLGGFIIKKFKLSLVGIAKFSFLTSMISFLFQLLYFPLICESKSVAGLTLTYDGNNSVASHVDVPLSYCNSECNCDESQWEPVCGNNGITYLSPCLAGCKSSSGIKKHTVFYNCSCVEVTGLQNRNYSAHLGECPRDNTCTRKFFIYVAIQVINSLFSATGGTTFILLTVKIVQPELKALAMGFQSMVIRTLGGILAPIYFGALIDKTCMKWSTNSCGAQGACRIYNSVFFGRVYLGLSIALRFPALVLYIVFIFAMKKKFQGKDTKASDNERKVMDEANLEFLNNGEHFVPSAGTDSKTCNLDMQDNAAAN

[3] = target: T2, Solute carrier organic anion transporter family member 1B1 (Homo sapiens, UniProt Q9Y6L6); test: Substrates of transporters of clinical importance in the absorption and disposition of drugs, OATP1B1
T2 sequence (Q9Y6L6 whole entry): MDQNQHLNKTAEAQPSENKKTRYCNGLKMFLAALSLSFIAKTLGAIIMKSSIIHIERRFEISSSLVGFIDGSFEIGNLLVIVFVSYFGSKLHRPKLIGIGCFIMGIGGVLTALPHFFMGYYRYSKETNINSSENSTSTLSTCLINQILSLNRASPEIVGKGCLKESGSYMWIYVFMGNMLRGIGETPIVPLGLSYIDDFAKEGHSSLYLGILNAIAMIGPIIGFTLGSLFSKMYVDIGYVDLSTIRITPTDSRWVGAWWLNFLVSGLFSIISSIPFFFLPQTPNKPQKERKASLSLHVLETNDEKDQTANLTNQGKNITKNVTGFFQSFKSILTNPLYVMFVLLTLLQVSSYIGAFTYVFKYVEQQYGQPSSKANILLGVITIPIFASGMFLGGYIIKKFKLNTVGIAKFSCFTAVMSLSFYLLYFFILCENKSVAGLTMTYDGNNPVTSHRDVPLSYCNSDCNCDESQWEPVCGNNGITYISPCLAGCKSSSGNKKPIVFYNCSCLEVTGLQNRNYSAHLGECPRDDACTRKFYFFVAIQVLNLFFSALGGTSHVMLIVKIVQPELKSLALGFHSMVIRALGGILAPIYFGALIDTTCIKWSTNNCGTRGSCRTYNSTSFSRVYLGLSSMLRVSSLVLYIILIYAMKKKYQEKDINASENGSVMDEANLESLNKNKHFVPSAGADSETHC

[4] = target: T3, ATP-binding cassette sub-family C member 4 (Homo sapiens, UniProt O15439); test: Substrates of transporters of clinical importance in the absorption and disposition of drugs, MRP4
T3 sequence (O15439 whole entry): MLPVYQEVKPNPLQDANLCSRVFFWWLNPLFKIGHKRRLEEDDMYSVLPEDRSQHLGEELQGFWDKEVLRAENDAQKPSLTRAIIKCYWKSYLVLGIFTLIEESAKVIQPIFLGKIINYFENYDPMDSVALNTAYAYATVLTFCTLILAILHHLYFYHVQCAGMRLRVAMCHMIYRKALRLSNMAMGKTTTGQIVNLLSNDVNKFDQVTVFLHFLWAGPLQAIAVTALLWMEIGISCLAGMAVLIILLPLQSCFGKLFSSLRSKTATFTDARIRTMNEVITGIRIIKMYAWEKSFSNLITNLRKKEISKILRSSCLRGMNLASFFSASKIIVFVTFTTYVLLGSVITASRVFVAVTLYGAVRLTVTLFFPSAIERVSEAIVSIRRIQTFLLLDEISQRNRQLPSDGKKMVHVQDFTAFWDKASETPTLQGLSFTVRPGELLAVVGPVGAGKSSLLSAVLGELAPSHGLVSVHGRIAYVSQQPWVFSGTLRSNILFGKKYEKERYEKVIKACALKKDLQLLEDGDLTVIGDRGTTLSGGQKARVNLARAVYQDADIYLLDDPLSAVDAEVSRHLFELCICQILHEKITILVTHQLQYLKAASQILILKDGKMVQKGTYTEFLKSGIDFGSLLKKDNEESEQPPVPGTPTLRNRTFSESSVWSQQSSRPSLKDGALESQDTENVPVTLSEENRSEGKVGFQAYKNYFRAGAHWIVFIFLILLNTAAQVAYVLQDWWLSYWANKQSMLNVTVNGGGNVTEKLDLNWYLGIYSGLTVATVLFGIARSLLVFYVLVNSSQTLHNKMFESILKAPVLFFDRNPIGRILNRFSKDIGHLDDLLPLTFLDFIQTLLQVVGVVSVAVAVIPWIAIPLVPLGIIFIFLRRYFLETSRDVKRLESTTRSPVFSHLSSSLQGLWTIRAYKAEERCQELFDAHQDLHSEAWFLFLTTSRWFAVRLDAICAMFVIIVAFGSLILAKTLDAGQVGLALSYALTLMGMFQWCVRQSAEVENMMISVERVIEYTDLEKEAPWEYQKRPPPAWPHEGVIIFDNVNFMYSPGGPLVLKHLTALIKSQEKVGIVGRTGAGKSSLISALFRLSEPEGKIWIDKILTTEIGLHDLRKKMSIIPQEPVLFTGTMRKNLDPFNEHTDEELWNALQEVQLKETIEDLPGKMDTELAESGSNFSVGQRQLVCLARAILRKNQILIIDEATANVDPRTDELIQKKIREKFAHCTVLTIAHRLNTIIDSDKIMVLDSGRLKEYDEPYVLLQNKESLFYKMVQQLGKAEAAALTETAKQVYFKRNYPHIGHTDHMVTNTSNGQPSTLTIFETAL

[5] = target: ATP-dependent translocase ABCB1 (Homo sapiens, UniProt P08183); test: Substrates of transporters of clinical importance in the absorption and disposition of drugs, MDR1
Chain of ATP-dependent translocase ABCB1 (P08183 whole entry): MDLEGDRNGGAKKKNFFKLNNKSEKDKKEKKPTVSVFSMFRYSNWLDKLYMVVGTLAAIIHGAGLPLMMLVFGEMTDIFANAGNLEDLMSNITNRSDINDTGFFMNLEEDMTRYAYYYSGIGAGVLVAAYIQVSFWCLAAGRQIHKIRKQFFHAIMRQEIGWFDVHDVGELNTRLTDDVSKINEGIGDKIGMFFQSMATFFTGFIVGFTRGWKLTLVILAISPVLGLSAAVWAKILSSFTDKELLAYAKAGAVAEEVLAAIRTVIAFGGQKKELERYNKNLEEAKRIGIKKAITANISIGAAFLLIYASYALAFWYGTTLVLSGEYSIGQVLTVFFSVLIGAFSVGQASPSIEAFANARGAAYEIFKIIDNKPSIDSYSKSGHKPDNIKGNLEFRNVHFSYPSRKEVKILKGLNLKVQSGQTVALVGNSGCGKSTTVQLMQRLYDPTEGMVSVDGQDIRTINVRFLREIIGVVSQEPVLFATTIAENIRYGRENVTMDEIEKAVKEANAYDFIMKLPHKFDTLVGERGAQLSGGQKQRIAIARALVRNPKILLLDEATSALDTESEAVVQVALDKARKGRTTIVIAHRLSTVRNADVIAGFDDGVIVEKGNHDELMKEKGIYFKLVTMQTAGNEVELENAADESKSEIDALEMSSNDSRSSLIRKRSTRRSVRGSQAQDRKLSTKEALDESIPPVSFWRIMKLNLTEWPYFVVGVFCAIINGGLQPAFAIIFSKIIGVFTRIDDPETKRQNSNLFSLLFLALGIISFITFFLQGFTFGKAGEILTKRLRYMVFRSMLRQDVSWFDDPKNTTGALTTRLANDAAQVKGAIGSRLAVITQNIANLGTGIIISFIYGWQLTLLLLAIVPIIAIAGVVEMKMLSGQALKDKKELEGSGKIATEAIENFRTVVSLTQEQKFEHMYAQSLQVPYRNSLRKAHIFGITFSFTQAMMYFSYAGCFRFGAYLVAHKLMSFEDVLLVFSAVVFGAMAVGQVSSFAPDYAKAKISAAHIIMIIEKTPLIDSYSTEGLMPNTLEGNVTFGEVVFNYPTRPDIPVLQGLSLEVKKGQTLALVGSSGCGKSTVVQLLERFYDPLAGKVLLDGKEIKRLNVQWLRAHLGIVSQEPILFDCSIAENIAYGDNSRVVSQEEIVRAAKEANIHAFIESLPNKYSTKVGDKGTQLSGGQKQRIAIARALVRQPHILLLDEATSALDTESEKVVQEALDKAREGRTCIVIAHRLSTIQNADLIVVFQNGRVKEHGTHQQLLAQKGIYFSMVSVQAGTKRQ

[6] = target: T4, Solute carrier organic anion transporter family member 1A2 (Homo sapiens, UniProt P46721); test: Substrates of transporters of clinical importance in the absorption and disposition of drugs, OATP1A2
T4 sequence (P46721 whole entry): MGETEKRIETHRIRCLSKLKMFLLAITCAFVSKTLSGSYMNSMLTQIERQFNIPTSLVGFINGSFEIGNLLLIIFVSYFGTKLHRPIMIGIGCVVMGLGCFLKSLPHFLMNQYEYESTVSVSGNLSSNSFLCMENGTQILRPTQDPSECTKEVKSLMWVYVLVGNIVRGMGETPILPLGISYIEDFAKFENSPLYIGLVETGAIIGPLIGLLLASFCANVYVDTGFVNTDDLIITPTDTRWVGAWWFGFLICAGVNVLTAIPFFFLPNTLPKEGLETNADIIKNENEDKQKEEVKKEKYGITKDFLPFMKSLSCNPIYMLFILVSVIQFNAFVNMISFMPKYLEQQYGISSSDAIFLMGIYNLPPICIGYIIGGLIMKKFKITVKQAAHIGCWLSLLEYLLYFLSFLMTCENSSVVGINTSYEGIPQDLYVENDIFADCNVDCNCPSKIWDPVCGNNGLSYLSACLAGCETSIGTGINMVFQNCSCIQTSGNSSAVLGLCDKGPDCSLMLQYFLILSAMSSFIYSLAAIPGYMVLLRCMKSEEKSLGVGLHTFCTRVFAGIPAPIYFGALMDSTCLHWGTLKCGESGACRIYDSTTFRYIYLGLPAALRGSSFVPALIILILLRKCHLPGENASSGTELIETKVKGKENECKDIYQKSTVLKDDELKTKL

[7] = target: T5, Solute carrier family 15 member 2 (Homo sapiens, UniProt Q16348); test: Substrates of transporters of clinical importance in the absorption and disposition of drugs, PEPT2
T5 sequence (Q16348 whole entry): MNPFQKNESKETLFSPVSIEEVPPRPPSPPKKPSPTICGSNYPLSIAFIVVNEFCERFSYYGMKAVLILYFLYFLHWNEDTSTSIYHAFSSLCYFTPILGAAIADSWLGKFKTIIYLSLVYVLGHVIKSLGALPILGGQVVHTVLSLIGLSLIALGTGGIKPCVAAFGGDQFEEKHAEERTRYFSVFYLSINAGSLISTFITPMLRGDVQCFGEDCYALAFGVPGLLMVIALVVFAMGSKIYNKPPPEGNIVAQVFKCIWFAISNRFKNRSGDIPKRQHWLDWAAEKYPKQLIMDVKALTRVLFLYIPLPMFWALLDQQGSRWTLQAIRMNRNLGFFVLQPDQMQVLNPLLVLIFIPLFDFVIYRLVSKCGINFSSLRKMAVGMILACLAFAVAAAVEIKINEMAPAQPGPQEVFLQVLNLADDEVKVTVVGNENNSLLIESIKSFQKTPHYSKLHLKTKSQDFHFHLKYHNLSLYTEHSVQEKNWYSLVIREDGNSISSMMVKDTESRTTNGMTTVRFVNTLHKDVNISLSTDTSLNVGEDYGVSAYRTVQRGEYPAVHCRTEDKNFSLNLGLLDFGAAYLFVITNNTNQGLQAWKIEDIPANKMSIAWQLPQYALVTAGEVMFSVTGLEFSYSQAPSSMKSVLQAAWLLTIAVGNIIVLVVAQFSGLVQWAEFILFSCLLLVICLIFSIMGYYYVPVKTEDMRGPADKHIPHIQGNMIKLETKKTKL

[8] = target: T6, Solute carrier family 15 member 1 (Homo sapiens, UniProt P46059); test: Substrates of transporters of clinical importance in the absorption and disposition of drugs, PEPT1
T6 sequence (P46059 whole entry): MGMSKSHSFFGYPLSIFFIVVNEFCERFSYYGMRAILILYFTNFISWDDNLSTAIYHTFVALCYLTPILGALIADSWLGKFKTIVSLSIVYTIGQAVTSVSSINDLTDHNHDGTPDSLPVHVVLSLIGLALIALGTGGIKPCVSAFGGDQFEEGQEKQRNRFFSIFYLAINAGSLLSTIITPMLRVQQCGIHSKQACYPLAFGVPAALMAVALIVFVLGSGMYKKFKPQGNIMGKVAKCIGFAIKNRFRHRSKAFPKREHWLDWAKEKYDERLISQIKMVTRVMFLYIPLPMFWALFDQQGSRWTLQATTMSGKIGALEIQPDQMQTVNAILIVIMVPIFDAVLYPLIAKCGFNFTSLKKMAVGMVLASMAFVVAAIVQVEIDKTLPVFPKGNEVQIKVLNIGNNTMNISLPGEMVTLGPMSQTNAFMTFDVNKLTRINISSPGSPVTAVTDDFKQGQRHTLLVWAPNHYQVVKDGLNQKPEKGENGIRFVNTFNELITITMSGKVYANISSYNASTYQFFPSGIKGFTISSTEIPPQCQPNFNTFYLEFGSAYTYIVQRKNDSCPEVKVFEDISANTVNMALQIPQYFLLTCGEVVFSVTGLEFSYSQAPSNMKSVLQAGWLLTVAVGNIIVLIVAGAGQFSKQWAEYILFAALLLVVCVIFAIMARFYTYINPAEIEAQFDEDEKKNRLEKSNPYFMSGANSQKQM

Chain of ATP-binding cassette sub-family C member 2 (Q92887 whole entry): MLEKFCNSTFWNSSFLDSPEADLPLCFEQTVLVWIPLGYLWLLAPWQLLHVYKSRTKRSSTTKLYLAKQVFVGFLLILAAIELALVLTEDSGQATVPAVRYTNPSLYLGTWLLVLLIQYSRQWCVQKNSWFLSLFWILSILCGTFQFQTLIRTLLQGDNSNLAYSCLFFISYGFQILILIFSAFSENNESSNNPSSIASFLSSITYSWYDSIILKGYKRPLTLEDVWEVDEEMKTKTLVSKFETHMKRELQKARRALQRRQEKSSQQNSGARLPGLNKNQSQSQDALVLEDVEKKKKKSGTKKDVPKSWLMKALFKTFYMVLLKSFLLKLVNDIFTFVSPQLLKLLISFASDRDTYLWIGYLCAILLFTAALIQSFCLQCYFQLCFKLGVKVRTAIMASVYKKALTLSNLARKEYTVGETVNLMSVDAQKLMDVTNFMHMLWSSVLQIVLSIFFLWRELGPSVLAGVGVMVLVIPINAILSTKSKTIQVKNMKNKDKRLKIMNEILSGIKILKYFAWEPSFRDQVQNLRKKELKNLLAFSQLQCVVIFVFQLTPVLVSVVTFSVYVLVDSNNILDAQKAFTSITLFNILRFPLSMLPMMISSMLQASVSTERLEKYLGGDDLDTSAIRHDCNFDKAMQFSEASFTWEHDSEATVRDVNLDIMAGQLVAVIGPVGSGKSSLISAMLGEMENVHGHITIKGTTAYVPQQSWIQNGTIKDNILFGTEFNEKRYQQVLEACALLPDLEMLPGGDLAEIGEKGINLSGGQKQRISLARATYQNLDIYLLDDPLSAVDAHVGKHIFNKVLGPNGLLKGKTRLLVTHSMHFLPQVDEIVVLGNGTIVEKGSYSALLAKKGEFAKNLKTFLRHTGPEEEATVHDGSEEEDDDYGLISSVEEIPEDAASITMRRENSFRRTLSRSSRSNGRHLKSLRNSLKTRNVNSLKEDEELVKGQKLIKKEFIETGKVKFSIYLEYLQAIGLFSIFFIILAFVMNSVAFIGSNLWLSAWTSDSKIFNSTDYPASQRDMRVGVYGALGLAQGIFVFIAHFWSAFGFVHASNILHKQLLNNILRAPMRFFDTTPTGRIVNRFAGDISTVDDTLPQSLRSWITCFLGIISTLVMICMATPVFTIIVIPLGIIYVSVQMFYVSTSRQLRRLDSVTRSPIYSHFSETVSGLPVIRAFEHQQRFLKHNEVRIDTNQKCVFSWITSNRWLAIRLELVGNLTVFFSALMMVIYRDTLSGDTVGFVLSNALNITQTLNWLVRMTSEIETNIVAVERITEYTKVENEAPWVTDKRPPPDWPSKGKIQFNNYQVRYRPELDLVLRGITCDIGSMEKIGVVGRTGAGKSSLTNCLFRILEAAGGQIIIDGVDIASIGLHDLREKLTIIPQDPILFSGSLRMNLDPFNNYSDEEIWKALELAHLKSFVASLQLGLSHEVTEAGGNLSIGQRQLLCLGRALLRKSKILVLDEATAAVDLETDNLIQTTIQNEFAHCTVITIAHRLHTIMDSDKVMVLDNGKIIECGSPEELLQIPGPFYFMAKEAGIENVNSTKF

CCCCC(=O)N(Cc1ccc(-c2ccccc2-c2nnn[nH]2)cc1)[C@H](C(=O)O)C(C)C
Activity [1]: transporter substrate
Activity [2]: transporter substrate
Activity [3]: transporter substrate

CCc1c2c(nc3ccc(OC[C@@H]4O[C@H](C(=O)O)[C@@H](O)[C@H](O)[C@H]4O)cc13)-c1cc3c(c(=O)n1C2)COC(=O)[C@]3(O)CC
Activity [1]: transporter substrate

Nc1nc2c(ncn2[C@@H]2O[C@@H]3COP(=O)(O)O[C@H]3[C@H]2O)c(=O)[nH]1
Activity [4]: transporter substrate

COc1ccc2cc3[n+](cc2c1OC)CCc1cc2c(cc1-3)OCO2.[Cl-] [BERBERINE CHLORIDE]
Activity [5]: transporter substrate

COc1cccc2c1C(=O)c1c(O)c3c(c(O)c1C2=O)C[C@@](O)(C(=O)CO)C[C@@H]3O[C@H]1C[C@H](N)[C@H](O)[C@H](C)O1 [DOXORUBICIN]
Activity [5]: transporter substrate

COc1cc([C@@H]2c3cc4c(cc3[C@@H](O[C@@H]3O[C@@H]5CO[C@@H](C)O[C@H]5[C@H](O)[C@H]3O)[C@H]3COC(=O)[C@H]23)OCO4)cc(OC)c1O [ETOPOSIDE]
Activity [1]: transporter substrate

CN(C)C(=O)C(CCN1CCC(O)(c2ccc(Cl)cc2)CC1)(c1ccccc1)c1ccccc1 [LOPERAMIDE]
Activity [5]: transporter substrate

CCCc1nc(C(C)(C)O)c(C(=O)O)n1Cc1ccc(-c2ccccc2-c2nnn[nH]2)cc1 [OLMESARTAN]
Activity [1]: transporter substrate
Activity [2]: transporter substrate
Activity [3]: transporter substrate

C[C@]12CC[C@H](OS(=O)(=O)O)CC1=CC[C@@H]1[C@@H]2CC[C@]2(C)C(=O)CC[C@@H]12 [PRASTERONE SULFURIC ACID]
Activity [6]: transporter substrate
Activity [4]: transporter substrate

CC(C)[C@H](N)C(=O)OCCOCn1cnc2c(=O)[nH]c(N)nc21 [VALACYCLOVIR]
Activity [7]: transporter substrate
Activity [8]: transporter substrate
